Laboratory results from US20060252825A1, “Crystal forms of {[(2r)-7-(2,6-dichlorophenyl)-5-fluoro-2,3-dihydro-1-benzofuran-2-yl]methyl}amine hydrochloride” (Wyeth, priority 2005, published 2006).
Several values for one entry are separate records, joined by “and”; a condition that tells them apart may be missing. Identical values can stand only once. Counter-ions that a name gives are not always drawn.

Assays:
Assay type in all cases: physicochemical
[1] = Assessment of stability in water (slurry at 25° C., form identified by XRPD); conditions: slurried in water at 25° C.; for Form after 2 days / Form after 4 days: Table A; for Form after 2 days / Form after 4 days / Stability in water (overall summary): hydrochloride; for Stability in water (overall summary): summary of Tables A-D
Protocol: Form I, Form II or a mixture thereof was slurried in water at 25° C. to assess stability. […] XRPD was used to identify crystalline form.

[2] = Conversion of Form I to Form II by slurrying in water at 25° C. (XRPD); conditions: slurried in water at 25° C. with stirring
Protocol: Form I was slurried in water for 1 day and for 5 days at 25° C. with stirring.

[3] = Solubility in water, gravimetric method
Protocol: Solubility was measured using the gravimetric method by separately suspending Form I and Form II in water with stirring at room temperature for 6 hours.

[4] = Conversion of Form II to Form I by slurrying in t-butylmethyl ether (XRPD); conditions: slurried in t-butylmethyl ether for 4 days at room temperature
Source text: Form II was slurried in t-butylmethyl ether for 4 days at room temperature. The resulting solid was characterized by XRPD as Form I.

Form after 2 days ([1]; XRPD) | Crystalline form after 5 days ([2]; 5 days) | solubility at 6 h ([3]; water, thermodynamic from solid, suspended in water with stirring at room temperature for 6 hours, gravimetric) | Form after 4 days ([1]; XRPD) | Form after 3 days ([1]; Table C, XRPD) | Resulting solid form [4] | Solubility-Water ([3]; suspended in water with stirring at room temperature for 6 hours, gravimetric, hydrochloride) | SMILES | Crystalline form after 1 day ([2]; 1 day) | Stability in water (overall summary) [1] | Relative thermodynamic stability based on solubility data ([3]; inferred from water solubility of Forms I and II, hydrochloride)
trace I | – | – | – | – | – | – | NC[C@H]1Cc2cc(F)cc(-c3c(Cl)cccc3Cl)c2O1 [50:50 I:II, {[(2R)-7-(2,6-dichlorophenyl)-5-fluoro-2,3-dihydro-1-benzofuran-2-yl]methyl}amine hydrochloride] | – | – | –
I, trace II | no detectable amount of Form I | 67 mg/mL | Increased amount of II | mainly II, some I | – | – | NC[C@H]1Cc2cc(F)cc(-c3c(Cl)cccc3Cl)c2O1 [Form I, {[(2R)-7-(2,6-dichlorophenyl)-5-fluoro-2,3-dihydro-1-benzofuran-2-yl]methyl}amine hydrochloride] | substantial conversion of the solid from Form I to Form II | converted to Form II under most of the conditions tested | –
– | – | – | – | – | Form I | 51 mg/mL and 50 mg/mL | NC[C@H]1Cc2cc(F)cc(-c3c(Cl)cccc3Cl)c2O1 [Form II, {[(2R)-7-(2,6-dichlorophenyl)-5-fluoro-2,3-dihydro-1-benzofuran-2-yl]methyl}amine hydrochloride] | – | stable in water | thermodynamically more stable in water than Form I
increased amount of II | – | – | increased amount of II | – | – | – | NC[C@H]1Cc2cc(F)cc(-c3c(Cl)cccc3Cl)c2O1 [I seeded with II, {[(2R)-7-(2,6-dichlorophenyl)-5-fluoro-2,3-dihydro-1-benzofuran-2-yl]methyl}amine hydrochloride] | – | – | –
